pIC50: −log10 of the molar value.
Biological target: T1, human DGAT1 enzyme (Homo sapiens, UniProt O75907)
T1 construct: made in house; host or cells: Sf9 insect cells (microsomes)
T1 sequence (O75907 1-488): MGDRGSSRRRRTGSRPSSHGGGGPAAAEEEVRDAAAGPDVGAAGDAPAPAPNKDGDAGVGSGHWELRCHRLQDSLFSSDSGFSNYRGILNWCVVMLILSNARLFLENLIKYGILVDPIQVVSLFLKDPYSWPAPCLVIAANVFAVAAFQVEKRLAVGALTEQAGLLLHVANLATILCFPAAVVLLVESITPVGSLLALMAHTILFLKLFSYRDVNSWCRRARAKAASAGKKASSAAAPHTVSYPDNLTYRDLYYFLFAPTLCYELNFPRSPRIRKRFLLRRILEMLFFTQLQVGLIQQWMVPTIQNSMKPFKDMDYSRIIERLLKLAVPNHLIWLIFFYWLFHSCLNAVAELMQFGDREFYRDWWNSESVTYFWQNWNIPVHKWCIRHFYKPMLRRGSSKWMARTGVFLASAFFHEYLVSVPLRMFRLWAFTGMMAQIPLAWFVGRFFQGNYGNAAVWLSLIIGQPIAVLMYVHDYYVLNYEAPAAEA
Assay: in vitro DGAT1 inhibition assay (microsomes, [14C]-palmitoyl-CoA, scintillation proximity)
Assay type: biochemical
Details: human DGAT1 expressed in Sf9 insect cell microsomes; 2 hours at room temperature; read-out: hDGAT IC50
Protocol: A useful assay to determine the DGAT inhibitory activity of the inventive compounds is described below:
The in vitro assay to identify DGAT1 inhibitors uses human DGAT1 enzyme expressed in Sf9 insect cells prepared as microsomes. The reaction is initiated by the addition of the combined substrates 1,2-dioleoyl-sn-glycerol and [^14C]-palmitoyl-CoA and incubated with test compounds and microsomal membranes for 2 hours at room temperature. The assay is stopped by adding 0.5 mg wheat germ agglutinin beads in assay buffer with 1% Brij-35 and 1% 3-cholamidopropyldimethyl-ammonio-1-propane sulfonate. Plates are sealed with TopSeal and incubated for 18 hours to allow the radioactive triglyceride product to come into proximity with the bead. Plates are read on a TopCount instrument.
Percent inhibition was calculated as the percent of (test compound inhibition minus non-specific binding) relative to (total binding minus non-specific binding). IC50 values were determined by curve fitting the data to a Sigmoidal dose-response in GraphPad Prism utilizing the following equation:
Y=A+(B−A)/(1+10̂((Log IC50−X))),
where A and B are the bottom and top of the curve (highest and lowest inhibition), respectively, and X is the logarithm of concentration.

| pIC50 | SMILES |
| --- | --- |
| 6.30 to 7.00 | Cc1cc(N2CCN(C(=O)Nc3ccccc3F)CC2)ncc1NC(=O)c1oc(N2CCCC(C)C2)nc1C(F)(F)F (centres unmarked) [Compound 321, N-(6-(4-(2-fluorophenylcarbamoyl)piperazin-1-yl)-4-methylpyridin-3-yl)-2-(3-methylpiperidin-1-yl)-4-(trifluoromethyl)oxazole-5-carboxamide] |
| 6.30 to 7.00 | O=C(Nc1ccc(N2CCN(C(=O)c3ccccc3F)CC2)nc1)c1oc(N2CCC(c3ccccc3)CC2)nc1C(F)(F)F [Compound 284, N-(6-(4-(2-fluorobenzoyl)piperazin-1-yl)pyridin-3-yl)-2-(4-phenylpiperidin-1-yl)-4-(trifluoromethyl)oxazole-5-carboxamide] |
| 6.30 to 7.00 | C[C@@H]1CN(C(=O)Nc2ccccc2F)CCN1c1ccc(NC(=O)c2oc(N3CCC(c4ccccc4)CC3)nc2C(F)(F)F)cn1 [Compound 310, (R)—N-(6-(4-(2-fluorophenylcarbamoyl)-2-methylpiperazin-1-yl)pyridin-3-yl)-2-(4-phenylpiperidin-1-yl)-4-(trifluoromethyl)oxazole-5-carboxamide] |
| 6.30 to 7.00 | CC1CCCN(c2nc(C(F)(F)F)c(C(=O)Nc3ccc(N4CCN(C(=O)[C@H]5CC[C@H](C(=O)O)CC5)CC4)nc3)o2)C1 (stereo partly drawn) [Compound 341, trans-4-[[4-[5-[[[2-(3-methyl-1-piperidinyl)-4-(trifluoromethyl)-5-oxazolyl]carbonyl]amino]-2-pyridinyl]-1-piperazinyl]carbonyl]cyclohexanecarboxylic acid] |
| 6.30 to 7.00 | O=C(Nc1cnc(N2CCN(C(=O)Nc3ccccc3F)CC2)nc1)c1oc(N2CCC(c3ccccc3)CC2)nc1C(F)(F)F [Compound 327, N-(2-(4-(2-fluorophenylcarbamoyl)piperazin-1-yl)pyrimidin-5-yl)-2-(4-phenylpiperidin-1-yl)-4-(trifluoromethyl)oxazole-5-carboxamide] |
| 6.30 to 7.00 | O=C(Nc1ccc(N2CCN(C(=O)Nc3ccccc3F)CC2)nc1)c1sc(COc2ccccc2)nc1C(F)(F)F [Compound 252, N-(6-(4-(2-fluorophenylcarbamoyl)piperazin-1-yl)pyridin-3-yl)-2-(phenoxymethyl)-4-(trifluoromethyl)thiazole-5-carboxamide] |
| 7.00 to 7.96 | O=C(O)c1ccccc1NC(=O)N1CCN(c2ccc(NC(=O)c3oc(N4CCC(c5ccccc5)CC4)nc3C(F)(F)F)cn2)CC1 [Compound 292, 2-(4-(5-(2-(4-phenylpiperidin-1-yl)-4-(trifluoromethyl)oxazole-5-carboxamido)pyridin-2-yl)piperazine-1-carboxamido)benzoic acid] |
| 7.00 to 7.96 | CC1CCCN(c2nc(C(F)(F)F)c(C(=O)Nc3ccc(O[C@@H]4CCN(C(=O)Nc5ccccc5F)C4)nc3)o2)C1 (stereo partly drawn) [Compound 263, N-(6-((R)-1-(2-fluorophenylcarbamoyl)pyrrolidin-3-yloxy)pyridin-3-yl)-2-(3-methylpiperidin-1-yl)-4-(trifluoromethyl)oxazole-5-carboxamide] |
| 6.30 to 7.00 | O=C(Nc1ccc(N2CCN(C(=O)Nc3ccccc3F)CC2)nc1)c1oc(N2CCN(c3ccccc3F)CC2)nc1C(F)(F)F [Compound 336, 2-(4-(2-fluorophenyl)piperazin-1-yl)-N-(6-(4-(2-fluorophenylcarbamoyl)-piperazin-1-yl)pyridin-3-yl)-4-(trifluoromethyl)oxazole-5-carboxamide] |
| 7.00 to 7.96 | O=C(Nc1ccc(N2CCN(C(=O)Nc3ccccc3F)CC2)nc1)c1sc(CSc2ccccc2)nc1C(F)(F)F [Compound 253, N-(6-(4-(2-fluorophenylcarbamoyl)piperazin-1-yl)pyridin-3-yl)-2-(phenylthiomethyl)-4-(trifluoromethyl)thiazole-5-carboxamide] |
| 7.00 to 7.96 | O=C(Nc1ccc(N2CCN(C(=O)Nc3ccccc3F)CC2)nc1)c1oc(N2CC[C@H](c3ccccc3)C2)nc1C(F)(F)F [Compound 270, (R)—N-(6-(4-(2-fluorophenylcarbamoyl)piperazin-1-yl)pyridin-3-yl)-2-(3-phenylpyrrolidin-1-yl)-4-(trifluoromethyl)oxazole-5-carboxamide] |
| 7.00 to 7.96 | C[C@@H]1CN(c2ccc(NC(=O)c3oc(N4CCC(c5ccccc5)CC4)nc3C(F)(F)F)cn2)CCN1C(=O)Nc1ccccc1F [Compound 266] |
| 6.30 to 7.00 | Cc1ccccc1NC(=O)c1ccc(-c2ccc(NC(=O)c3sc(CN(C)c4ccccc4)nc3C(F)(F)F)nc2)cc1 [Compound 250, 2-((methyl(phenyl)amino)methyl)-N-(5-(4-(o-tolylcarbamoyl)phenyl)pyridin-2-yl)-4-(trifluoromethyl)thiazole-5-carboxamide] |
| 7.00 to 7.96 | Cc1ccccc1NC(=O)c1ccc(-c2ccc(NC(=O)c3oc(N4CCCC(C)C4)nc3C(F)(F)F)cc2)nc1 (centres unmarked) [Compound 242, 2-(3-methylpiperidin-1-yl)-N-(4-(5-(o-tolylcarbamoyl)pyridin-2-yl)phenyl)-4-(trifluoromethyl)oxazole-5-carboxamide] |
| 7.00 to 7.96 | CC1CCCN(c2nc(C(F)(F)F)c(C(=O)Nc3ccc(N4CCN(C(=O)Nc5ccccc5F)CC4)cn3)o2)C1 (centres unmarked) [Compound 236, N-(5-(4-(2-fluorophenylcarbamoyl)piperazin-1-yl)pyridin-2-yl)-2-(3-methylpiperidin-1-yl)-4-(trifluoromethyl)oxazole-5-carboxamide] |
| 6.30 to 7.00 | CC1CCCN(c2nc(C(F)(F)F)c(C(=O)Nc3ccc(-c4ccc(C(=O)NCCC(=O)O)cc4)cc3)o2)C1 (centres unmarked) [Compound 328, 3-(4′-(2-(3-methylpiperidin-1-yl)-4-(trifluoromethyl)oxazole-5-carboxamido)biphenyl-4-ylcarboxamido)propanoic acid] |
| 7.00 to 7.96 | CC1CCCN(c2nc(C(F)(F)F)c(C(=O)Nc3ccc(N4CCN(C(=O)Nc5ccccc5C(=O)O)CC4)nc3)o2)C1 (centres unmarked) [Compound 300, 2-(4-(5-(2-(3-methylpiperidin-1-yl)-4-(trifluoromethyl)oxazole-5-carboxamido)pyridin-2-yl)piperazine-1-carboxamido)benzoic acid] |
| 6.30 to 7.00 | O=C(Nc1ccc(N2CCN(C(=O)Nc3ccccc3F)CC2)nc1)c1oc(N2CCC(O)(c3ccccc3)CC2)nc1C(F)(F)F [Compound 324, N-(6-(4-(2-fluorophenylcarbamoyl)piperazin-1-yl)pyridin-3-yl)-2-(4-hydroxy-4-phenylpiperidin-1-yl)-4-(trifluoromethyl)oxazole-5-carboxamide] |
| 6.30 to 7.00 | CN(c1ncc(C(=O)Nc2ccc(N3CCN(C(=O)Nc4ccccc4F)CC3)nc2)c(C(F)(F)F)n1)C1CCCC1 [Compound 220, 2-(cyclopentyl(methyl)amino)-N-(6-(4-(2-fluorophenylcarbamoyl)piperazin-1-yl)pyridin-3-yl)-4-(trifluoromethyl)pyrimidine-5-carboxamide] |
| 7.00 to 7.96 | O=C(Nc1ccc(N2CCN(C(=O)[C@H]3CC[C@H](C(=O)O)CC3)CC2)nc1)c1oc(N2CCC(c3ccccc3)CC2)nc1C(F)(F)F [Compound 296, trans-4-(4-(5-(2-(4-phenylpiperidin-1-yl)-4-(trifluoromethyl)oxazole-5-carboxamido)pyridin-2-yl)piperazine-1-carbonyl)cyclohexanecarboxylic acid] |

Reference: patent publication US20110224136A1, “INHIBITORS OF DIACYLGLYCEROL ACYLTRANSFERASE” (priority 2008, published 2011)
